From patent US7838645B2, “Function of autophagy genes in cell death” (University of Maryland College Park, priority 2004, dated 2010)
Where a SMILES comes first, the peptide text is derived from it. The star is where a group is joined. Cbz = O=C(OCc1ccccc1)*; CH2Cl = ClC*; CH2F = FC*

Experiments:
L929 cells [1] = experiment: Cell death analysis (propidium iodide staining, flow cytometry) in L929 cells; assay type: cell-based, mouse; conditions: for Induction of cell death (% cell loss): 40 hours, FIG. 9
Protocol: (§1) Cell viability was determined after treatments by staining with propidium iodide (2 μg/mL) and flow cytometric analysis on a FACScan. Percent cell death was quantitated as previously described (26).
In mouse L929 fibroblastic cells, tumor necrosis factor (TNF), oxidants, ceramide, and radiation can induce caspase-independent death (11). […] L929 cells were treated with 1 ul of dimethyl sulfoxide (DMSO) FIG. 1A (a and c) or 20 uM zVAD (b and d) for 24 hours and examined by phase contrast microscopy (a and b); or 4′,6′-diamidino-2-phenylindole-staining and fluorescent microscopy (c and d). Magnification: 200×. […] The percentage of vaculated cells is the fraction of cells that have 10 or more autophagic vacuoles by TEM. Statistical analysis is shown in FIG. 4 and morphometric analysis of zVAD-induced autophagy in L929 cells is quantitated in Table 1 setforth below. […]
L929 cells were treated with 1 ul/ml DMSO, 20 uM zVAD, 20 uM zFA, 20 uM LEHD, 20 uM DEVD, or 20 uM zAAD for 40 hours, and % cell loss was quantified by flow cytometry. […] Because zVAD is a potent inhibitor of caspase-8, it likely exerted its death effect through inhibition of caspase-8.

[2] = system: mouse peritoneal macrophages; experiment: Cell loss by flow cytometry in mouse peritoneal macrophages; assay type: cell-based; conditions: FIG. 7
Protocol: as §1
(§2) The RAW264.7 cells were treated with 0.1 ug/ml Wortmannin (WM) or 10 mM 3-methyladenine (3-MA) for 1 hr and the with 100 uM zVAD for 48 hrs, after which cell loss was quantitated by flow cytometry. […] Mouse peritoneal macrophages cells were treated with 0.1 ug/ml Wortmannin (WM) or 10 mM 3-methyladenine (3-MA) for 1 hr and with 100 uM zVAD for 24 hrs, after which cell loss were quantitated by flow cytometry.

RAW264.7 cells = experiment: Cell loss by flow cytometry in RAW264.7 cells; assay type: cell-based, mouse; conditions: FIG. 6
Protocol: as §1, §2

[3] = system: c-Jun N-terminal kinase (JNK); experiment: Detection of phosphorylated JNK/SAPK by Western blot in L929 cells; assay type: cell-based, mouse; conditions: zVAD 24 hrs, 2% FBS, FIG. 2B
Protocol: L929 cells were treated with DMSO or zVAD for 24 hrs in the presence of 2% FBS. The cell lysate was spun for 10 minutes at 13000 rpm. 20 ul of the c-Jun beads (SAPK/JNK assay kit from Cell Signaling) were added to the supernatant and incubated overnight at 4° C. Beads were washed 4 times with lysis buffer and resuspended in 50 ul of 1× sample buffer. Samples were boiled for 5 minutes and analyzed by SDS-PAGE and Western blot for phosphorylated SAP/JNK by probing with phospho-JNK antibody.
Death receptors can elicit nonapoptotic death through the “receptor-interacting protein” (RIP), a death-domain-containing, serine-threonine kinase (6, 7). […] For example, cells were treated with zVAD after transfection with RIP RNAi or nonspecific (NS) oligonucleotides. Reduction in cell number (solid bars) and the fractions of cells with autophagic features based on TEM (open bars) are shown in FIG. 2A. FIG. 2B is a western blot for phospho-JNK (left lane) or total JNK protein (right lane) after zVAD treatment. zVAD activated c-Jun N-terminal kinase (JNK) that is also activated by RIP in response to cytokines.

RIP = RIP cleavage by caspase-8 (Western blot, FIG. 11); assay type: cell-based; conditions: cells treated with zVAD
Description: It was observed that the signaling through the serine-threonine kinase RIP is essential for autophagic cell death. When RIP is cleaved and inactivated by caspase 8, then a mechanism is provided for the prevention of autophagic cell death. However, inhibition of caspase 8 allows RIP to transmit the signal needed to kill the cell through the autophagic pathway. […] Clearly, zVAD treatment prevents RIP from constitutive caspase-8 cleavage. The indicated band is the 42 kD proteolytic product that is characteristic of caspase-8 cleavage (1).

L929 cells [4] = experiment: Transmission electron microscopy morphometric analysis of autophagy in L929 cells; assay type: cell-based, mouse; conditions: for Apoptotic cell / Autophagic and apoptotic features / Autophagic cells(total) / Lytic/necrotic cell / Mild autophagy (cell with 10~19 vacuoles) / Moderate autophagy (cell with 20~29 vacuoles) / Normal cells / Severe Autophagy (cell with 30 or more vacuoles) / Vacuolated(but not autophagic): TEM, of total 100
Protocol: Cells were fixed in 3% glutaraldehyde in 0.1 M MOPS buffer (pH 7.0) for 8 hrs at room temperature, 3% glutaraldehyde/1% paraformaldehyde in 0.1 M MOPS buffer (pH 7.0) for 16 hours at 4° C., post-fixed in 1% osmium tetroxide for 1 hour, embedded in Spurr's resin, sectioned, double stained with Uranyl acetate and Lead citrate, and analyzed using a Zeiss EM 10 transmission electron microscope. For each treatment or control group, at least 100 cells from randomly chosen transmission electron microscopy fields were analyzed for quantification of morphological features. Cells with ≧10 vacuoles were scored as autophagy positive. Cells were stratified as follows: 0 (≦9 vacuoles/cell), 1(10-19 vacuoles/cell), 2 (20-29 vacuoles/cell), 3 (≧30 vacuoles/cell). Scores were ranked and comparisons of treatment to control groups were made using the Mann-Whitney U test using the Statview 5.0.1 program. Statistical analysis of the differences in FIG. 1, panels D, E, F, and G and FIG. 2A, B, D were significant (p<0.0001).
In mouse L929 fibroblastic cells, tumor necrosis factor (TNF), oxidants, ceramide, and radiation can induce caspase-independent death (11). […] L929 cells were treated with 1 ul of dimethyl sulfoxide (DMSO) FIG. 1A (a and c) or 20 uM zVAD (b and d) for 24 hours and examined by phase contrast microscopy (a and b); or 4′,6′-diamidino-2-phenylindole-staining and fluorescent microscopy (c and d). Magnification: 200×. […] The percentage of vaculated cells is the fraction of cells that have 10 or more autophagic vacuoles by TEM. Statistical analysis is shown in FIG. 4 and morphometric analysis of zVAD-induced autophagy in L929 cells is quantitated in Table 1 setforth below.

Q: Which “Effect on zVAD-induced cell loss” value (L929 cells [1]; WM 0.1 ug/ml or 3-MA 10 mM for 1 hour, then 20 uM zVAD for 36 hours, FIG. 1E) does the source give for Cn1cnc(N)c2ncnc1-2 [3-MA, 3-methyladenine] here?
A: reduction in cell loss

Q: What about the “Effect on zVAD-induced cell death” value ([2]; 0.1 ug/ml WM or 10 mM 3-MA for 1 hr, then 100 uM zVAD for 24 hrs) of the same compound?
A: arrested zVAD-induced cell death

Q: And the “Effect on zVAD-induced cell death” value (RAW264.7 cells; 0.1 ug/ml WM or 10 mM 3-MA for 1 hr, then 100 uM zVAD for 48 hrs)?
A: arrested zVAD-induced cell death

Q: Which “Effect on zVAD-induced cell death (% cell loss)” value (L929 cells [1]; 1 ug/ml inhibitor for 1 hour, then 20 uM zVAD for 40 hours, flow cytometry, FIG. 8) does the source give for O=C1c2ccccc2-c2n[nH]c3cccc1c23 [JNK inhibitor II, Anthra[1,9-cd]pyrazol-6 (2H)-one 1,9-pyrazoloanthrone] here?
A: blocked zVAD-induced cell death

Q: For COC(=O)CC(NC(=O)C(C)NC(=O)C(C)NC(=O)OCc1ccccc1)C(=O)CCl (stereo not drawn) [ZAAD, benzyloxycarbonyl-Alanyl-Alanyl-Aspartyl-(O-methyl)-chloromethylketone] (Cbz-Ala-Ala-Asp(OMe)-CH2Cl; configuration not given here), which “Induction of cell death (% cell loss)” value (L929 cells [1]; 20 uM, flow cytometry) is on record?
A: no ability to induce cell death

Q: With COC(=O)CC(NC(=O)C(C)NC(=O)C(NC(=O)OCc1ccccc1)C(C)C)C(=O)CF (stereo not drawn) [zVAD, Benzyloxycarbonyl-Valyl-Alanyl-Aspartyl-(O-methyl)-fluoromethylketone] (Cbz-Val-Ala-Asp(OMe)-CH2F; configuration not given here) as the compound, how does the “Activation of JNK (phospho-JNK Western blot)” value [3] read?
A: activated

Q: And the “RIP cleavage fragments characteristic of caspase-8 activity” value (RIP)?
A: no cleaved fragments were found

Q: And the “Time course of zVAD induced autophagy (percentage of vacuolated cells, 10 or more autophagic vacuoles by TEM)” value (L929 cells [4]; FIG. 1D)?
A: vacuolated cells accumulated prior to cell death

Q: What about the Apoptotic cell (L929 cells [4]; zVAD 0 hrs) of the same compound?
A: 0

Q: And the “Autophagic and apoptotic features” value (L929 cells [4]; zVAD 0 hrs)?
A: 0

Q: And the “Autophagic cells(total)” value (L929 cells [4]; zVAD 0 hrs)?
A: 0

Q: What about the Lytic/necrotic cell (L929 cells [4]; zVAD 0 hrs) of the same compound?
A: 0

Q: And the “Mild autophagy (cell with 10~19 vacuoles)” value (“Mild autophagy” for short) (L929 cells [4]; zVAD 0 hrs)?
A: 0

Q: What about the “Moderate autophagy (cell with 20~29 vacuoles)” value (“Moderate autophagy” for short) (L929 cells [4]; zVAD 0 hrs) of the same compound?
A: 0

Q: What about the Normal cells (L929 cells [4]; zVAD 0 hrs) of the same compound?
A: 85

Q: And the “Severe Autophagy (cell with 30 or more vacuoles)” value (“Severe Autophagy” for short) (L929 cells [4]; zVAD 0 hrs)?
A: 0

Q: And the “Vacuolated(but not autophagic)” value (L929 cells [4]; zVAD 0 hrs)?
A: 15

Q: What about the Apoptotic cell (L929 cells [4]; zVAD 8 hrs) of the same compound?
A: 4

Q: What about the “Autophagic and apoptotic features” value (L929 cells [4]; zVAD 8 hrs) of the same compound?
A: 1

Q: What about the “Autophagic cells(total)” value (L929 cells [4]; zVAD 8 hrs) of the same compound?
A: 76

Q: And the Lytic/necrotic cell (L929 cells [4]; zVAD 8 hrs)?
A: 0

Q: What about the “Mild autophagy” value (L929 cells [4]; zVAD 8 hrs) of the same compound?
A: 55

Q: What about the “Moderate autophagy” value (L929 cells [4]; zVAD 8 hrs) of the same compound?
A: 20

Q: And the Normal cells (L929 cells [4]; zVAD 8 hrs)?
A: 19

Q: And the “Severe Autophagy” value (L929 cells [4]; zVAD 8 hrs)?
A: 1

Q: What about the “Vacuolated(but not autophagic)” value (L929 cells [4]; zVAD 8 hrs) of the same compound?
A: 0

Q: And the Apoptotic cell (L929 cells [4]; zVAD 12 hrs)?
A: 1

Q: And the “Autophagic and apoptotic features” value (L929 cells [4]; zVAD 12 hrs)?
A: 1

Q: And the “Autophagic cells(total)” value (L929 cells [4]; zVAD 12 hrs)?
A: 93

Q: What about the Lytic/necrotic cell (L929 cells [4]; zVAD 12 hrs) of the same compound?
A: 3

Q: And the “Mild autophagy” value (L929 cells [4]; zVAD 12 hrs)?
A: 24

Q: And the “Moderate autophagy” value (L929 cells [4]; zVAD 12 hrs)?
A: 59

Q: What about the Normal cells (L929 cells [4]; zVAD 12 hrs) of the same compound?
A: 2

Q: What about the “Severe Autophagy” value (L929 cells [4]; zVAD 12 hrs) of the same compound?
A: 10

Q: What about the “Vacuolated(but not autophagic)” value (L929 cells [4]; zVAD 12 hrs) of the same compound?
A: 0

Q: And the “Time after which death was complete” value (L929 cells [1]; 20 uM zVAD, FIG. 1B)?
A: 40 h

Q: And the “Time at which death began after zVAD treatment” value (L929 cells [1]; 20 uM zVAD, FIG. 1B)?
A: 12 h

Q: And the “Induction of death of L929 cells” value (L929 cells [1]; 20 uM, 24 hours, microscopy)?
A: directly induced the death of L929 cells

Q: And the “Induction of cell death (% cell loss)” value (L929 cells [1]; 20 uM, flow cytometry)?
A: induced cell death

Q: And the “Induction of cell death” value ([2]; 100 uM zVAD for 24 hrs)?
A: induced cell death by the autophagic pathway

Q: And the “Induction of cell death” value (RAW264.7 cells; 100 uM zVAD for 48 hrs)?
A: induced cell death by the autophagic pathway

Q: COC(=O)CCC(NC(=O)C(CC(=O)OC)NC(=O)OCc1ccccc1)C(=O)NC(C(=O)NC(CC(=O)OC)C(=O)CF)C(C)C (stereo not shown) [DEVD, benzyloxycarbonyl-Aspartyl-(O-methyl)-Glutamyl-(O-methyl)-Valyl-Aspartyl-(O-methyl)-fluoromethylketone] was tested. Which “Induction of cell death (% cell loss)” value (L929 cells [1]; 20 uM, flow cytometry) did it give?
A: no ability to induce cell death

Q: For C[C@@H]1C[C@@H]([C@H](O)CC2CC(=O)NC(=O)C2)C(=O)[C@@H](C)C1 [cycloheximide, Cycloheximide], which “Effect of protein synthesis inhibition on zVAD-induced cell death” value (L929 cells [1]; FIG. 2C) is on record?
A: blocked cell death
